Here are results for one sequence from patent US11459355B2, “Peptides having octopus octopressin activity and use thereof” (NATIONAL MARINE BIODIVERSITY INSTITUTE OF KOREA, priority 2018, dated 2022).

This assay relates to Octopus minor. Kind of assay: Analysis of bioactivity of octopressin peptide: behavior change of adult Octopus minor after injection. It counts as in vivo. The procedure: Peptides satisfying the octopressin amino acid sequence and modification predicted in Example 4 were ordered and purchased from a peptide synthesizing company and used. A dried peptide powder was dissolved in tertiary distilled water to a concentration of 10 mg/ml, diluted 100 times of artificial seawater filtered through a 0.20 μm filter to prepare an injection solution. A disposable syringe and a 26 gauge needle were used to poke at a 1 cm deep, and the injection solution was administered in the center between the body of the head of the adult Octopus minor. The injection volume was 100 microgram/kg by weight of the Octopus minor. As a control group, Octopus minor without injection (before injection), Octopus minor injected with filtered artificial seawater only, and Octopus minor injected with octopus-derived octopressin were used. […] In addition, these behavior changes began to appear 1 to 5 minutes after injection and lasted for 10 to 20 minutes, and the effect peaked between 5 to 10 minutes after injection and lasted for 10 to 20 minutes. […] Here, the used Octopus minor were discarded without reuse.

“CFWTNCPVG (Octopressin_active peptide) [octopressin-activated peptide]”: the “brooding-like behavior after injection (FIG. 6B)” value (Octopus minor injected with octopressin) was “behaviors similar to the brooding behaviors”. Further, the “behavior change after injection (repetitive bending and stretching of arms, social behaviors)” value (adult Octopus minor, injection between body and head, 100 microgram/kg, total of 12 Octopus minors, regardless of sex) is on record as “had bioactivity”.
